Data as given in US8466168B2, “Tricyclic alkylaminomethyloxazolidinone derivatives” (Actellon Pharmaceuticals Ltd., priority 2008, dated 2013).

System: S. aureus A798
Assay: MIC determination by microdilution in cation-adjusted Mueller-Hinton Broth (CLSI M7-A7)
Format: cell-based
Conditions: Staphylococcus aureus, microdilution method, strain S. aureus A798
Protocol: Minimal inhibitory concentrations (MICs; mg/l) were determined in cation-adjusted Mueller-Hinton Broth by a microdilution method following the description given in “Methods for Dilution Antimicrobial Susceptibility Tests for Bacteria that Grow Aerobically”, Approved standard, 7th ed., Clinical and Laboratory Standards Institute (CLSI) Document M7-A7, Wayne, Pa., USA, 2006. All Example compounds were tested against several Gram positive and Gram negative bacteria such as S. aureus, E. faecalis, S. pneumoniae, M catarrhalis, A. baumanii, E. coli or P. aeruginosa.

Row | SMILES | MIC [µg/mL]
1 | COc1ccc2ncc3c(c2n1)C(CCNC(=O)[C@@H]1CN(c2ccc4c(c2)OCCO4)C(=O)O1)CO3 (mixture of isomers) [Example 16, (S)-3-(2,3-dihydro-benzo[1,4]dioxin-6-yl)-2-oxo-oxazolidine-5-carboxylic acid [2-((RS)-8-methoxy-1,2-dihydro-3-oxa-5,9-diaza-cyclopenta[a]naphthalen-1-yl)-ethyl]-amide] | ≤ 0.031
2 | COc1ccc2ncc3c(c2n1)C(CNCC[C@@H]1CN(c2ccc4c(c2)NC(=O)CS4)C(=O)O1)CO3 (mixture of isomers) [Example 14, 6-((R)-5-{2-[((RS)-8-methoxy-1,2-dihydro-3-oxa-5,9-diaza-cyclopenta[a]naphthalen-1-ylmethyl)-amino]-ethyl}-2-oxo-oxazolidin-3-yl)-4H-benzo[1,4]thiazin-3-one] | ≤ 0.031
3 | COc1ccc2ncc3c(c2n1)C(CNCC[C@H]1CN(c2ccc4c(c2)NC(=O)CS4)C(=O)O1)CO3 (mixture of isomers) [Example 15, 6-((S)-5-{2-[((RS)-8-methoxy-1,2-dihydro-3-oxa-5,9-diaza-cyclopenta[a]naphthalen-1-ylmethyl)-amino]-ethyl}-2-oxo-oxazolidin-3-yl)-4H-benzo[1,4]thiazin-3-one] | ≤ 0.031
4 | COc1ccc2ncc3c(c2n1)CC(CNCC[C@@H]1CN(c2ccc4c(c2)NC(=O)CO4)C(=O)O1)O3 (mixture of isomers) [Example 18, 6-((R)-5-{2-[((RS)-8-methoxy-1,2-dihydro-3-oxa-5,9-diaza-cyclopenta[a]naphthalen-2-ylmethyl)-amino]-ethyl}-2-oxo-oxazolidin-3-yl)-4H-benzo[1,4]oxazin-3-one] | ≤ 0.031
5 | COc1ccc2ncc3c(c2n1)CC(CNCC[C@@H]1CN(c2ccc4c(c2)NC(=O)CS4)C(=O)O1)O3 (mixture of isomers) [Example 19, 6-((R)-5-{2-[((RS)-8-methoxy-1,2-dihydro-3-oxa-5,9-diaza-cyclopenta[a]naphthalen-2-ylmethyl)-amino]-ethyl}-2-oxo-oxazolidin-3-yl)-4H-benzo[1,4]thiazin-3-one] | ≤ 0.031
6 | COc1ccc2ncc3c(c2n1)C(CCNC[C@@H]1CN(c2ccc4c(c2)NC(=O)CO4)C(=O)O1)CO3 (mixture of isomers) [Example 10, 6-((R)-5-{[2-((RS)-8-methoxy-1,2-dihydro-3-oxa-5,9-diaza-cyclopenta[a]naphthalen-1-yl)-ethylamino]-methyl}-2-oxo-oxazolidin-3-yl)-4H-benzo[1,4]oxazin-3-one] | ≤ 0.031
7 | COc1ccc2ncc3c(c2n1)C(CCNCC[C@@H]1CN(c2ccc4c(c2)NC(=O)CS4)C(=O)O1)CO3 (mixture of isomers) [Example 13, 6-((R)-5-{2-[2-((RS)-8-methoxy-1,2-dihydro-3-oxa-5,9-diaza-cyclopenta[a]naphthalen-1-yl)-ethylamino]-ethyl}-2-oxo-oxazolidin-3-yl)-4H-benzo[1,4]thiazin-3-one] | ≤ 0.031
8 | COc1ccc2ccc3c(c2n1)C(CCNC[C@@H]1CN(c2ccc4c(c2)NC(=O)CO4)C(=O)O1)CO3 (mixture of isomers) [Example 7, 6-((R)-5-{[2-((RS)-2-methoxy-8,9-dihydro-furo[2,3-h]quinolin-9-yl)-ethylamino]-methyl}-2-oxo-oxazolidin-3-yl)-4H-benzo[1,4]oxazin-3-one] | ≤ 0.031
9 | COc1ccc2ncc3c(c2n1)C(CCNC[C@H]1CN(c2ccc4c(c2)NC(=O)CS4)C(=O)O1)CO3 (mixture of isomers) [Example 12, 6-((S)-5-{[2-((RS)-8-methoxy-1,2-dihydro-3-oxa-5,9-diaza-cyclopenta[a]naphthalen-1-yl)-ethylamino]-methyl}-2-oxo-oxazolidin-3-yl)-4H-benzo[1,4]thiazin-3-one] | ≤ 0.031
10 | COc1ccc2ccc3c(c2n1)CC(CNC[C@@H]1CN(c2ccc4c(c2)NC(=O)CS4)C(=O)O1)CO3 (mixture of isomers) [Example 1, 6-((R)-5-{[((RS)-6-methoxy-3,4-dihydro-2H-1-oxa-5-aza-phenanthren-3-ylmethyl)-amino]-methyl}-2-oxo-oxazolidin-3-yl)-4H-benzo[1,4]thiazin-3-one] | ≤ 0.031
11 | COc1ccc2ncc3c(c2n1)CC(CNC[C@@H]1CN(c2ccc4c(c2)NC(=O)CS4)C(=O)O1)CO3 (mixture of isomers) [Example 4, 6-((R)-5-{[((RS)-6-methoxy-3,4-dihydro-2H-1-oxa-5,9-diaza-phenanthren-3-ylmethyl)-amino]-methyl}-2-oxo-oxazolidin-3-yl)-4H-benzo[1,4]thiazin-3-one] | ≤ 0.031

Further lines, results first:

Row | MIC [µg/mL] | SMILES
12 | ≤ 0.031 | COc1ccc2ncc3c(c2n1)C(CCNC[C@@H]1CN(c2ccc4c(c2)NC(=O)CS4)C(=O)O1)CO3 (mixture of isomers) [Example 9, 6-((R)-5-{[2-((RS)-8-methoxy-1,2-dihydro-3-oxa-5,9-diaza-cyclopenta[a]naphthalen-1-yl)-ethylamino]-methyl}-2-oxo-oxazolidin-3-yl)-4H-benzo[1,4]thiazin-3-one]
13 | ≤ 0.031 | COc1ccc2ccc3c(c2n1)CC(CNC[C@@H]1CN(c2ccc4c(c2)NC(=O)CO4)C(=O)O1)CO3 (mixture of isomers) [Example 2, 6-((R)-5-{[((RS)-6-methoxy-3,4-dihydro-2H-1-oxa-5-aza-phenanthren-3-ylmethyl)-amino]-methyl}-2-oxo-oxazolidin-3-yl)-4H-benzo[1,4]oxazin-3-one]
14 | 1 | COc1ccc2ncc3c(c2n1)[C@@H](CCNCC1CN(c2ccc4c(c2)OCCO4)C(=O)O1)CO3 (mixture of isomers) [Example 20, (RS)-3-(2,3-dihydro-benzo[1,4]dioxin-6-yl)-5-{[2-((R)-8-methoxy-1,2-dihydro-3-oxa-5,9-diaza-cyclopenta[a]naphthalen-1-yl)-ethylamino]-methyl}-oxazolidin-2-one]
15 | 0.25 | COc1ccc2ncc3c(c2n1)C(CCNC[C@@H]1CN(c2ccc(C)c(F)c2)C(=O)O1)CO3 (mixture of isomers) [Example 11, (R)-3-(3-fluoro-4-methyl-phenyl)-5-{[2-((RS)-8-methoxy-1,2-dihydro-3-oxa-5,9-diaza-cyclopenta[a]naphthalen-1-yl)-ethylamino]-methyl}-oxazolidin-2-one]
16 | ≤ 0.031 | COc1ccc2ccc3c(c2n1)C(CCNC[C@@H]1CN(c2ccc4c(c2)NC(=O)CS4)C(=O)O1)CO3 (mixture of isomers) [Example 6, 6-((R)-5-{[2-((RS)-2-methoxy-8,9-dihydro-furo[2,3-h]quinolin-9-yl)-ethylamino]-methyl}-2-oxo-oxazolidin-3-yl)-4H-benzo[1,4]thiazin-3-one]
17 | ≤ 0.031 | COc1ccc2ncc3c(c2n1)CC(CNC[C@@H]1CN(c2ccc4c(c2)NC(=O)CO4)C(=O)O1)CO3 (mixture of isomers) [Example 3, 6-((R)-5-{[((RS)-6-methoxy-3,4-dihydro-2H-1-oxa-5,9-diaza-phenanthren-3-ylmethyl)-amino]-methyl}-2-oxo-oxazolidin-3-yl)-4H-benzo[1,4]oxazin-3-one]
18 | ≤ 0.031 | COc1ccc2ncc3c(c2n1)CC(CNC[C@@H]1CN(c2ccc4c(c2)NC(=O)CS4)C(=O)O1)O3 (mixture of isomers) [Example 17, 6-((R)-5-{[((RS)-8-methoxy-1,2-dihydro-3-oxa-5,9-diaza-cyclopenta[a]naphthalen-2-ylmethyl)-amino]-methyl}-2-oxo-oxazolidin-3-yl)-4H-benzo[1,4]thiazin-3-one]
19 | ≤ 0.031 | COc1ccc2ccc3c(c2n1)C(CNC[C@@H]1CN(c2ccc4c(c2)NC(=O)CS4)C(=O)O1)CO3 (mixture of isomers) [Example 8, 6-((R)-5-{[((RS)-2-methoxy-8,9-dihydro-furo[2,3-h]quinolin-9-ylmethyl)-amino]-methyl}-2-oxo-oxazolidin-3-yl)-4H-benzo[1,4]thiazin-3-one]
20 | ≤ 0.031 | COc1ccc2ncc3c(c2n1)CC(CNC[C@@H]1CN(c2ccc4c(c2)NC(=O)CS4)C(=O)O1)CN3 (mixture of isomers) [Example 5, 6-((R)-5-{[((RS)-6-methoxy-1,2,3,4-tetrahydro-1,5,9-triaza-phenanthren-3-ylmethyl)-amino]-methyl}-2-oxo-oxazolidin-3-yl)-4H-benzo[1,4]thiazin-3-one]
